From paper PMC5218480 (PLoS ONE, 2017)

Tested on: MV-4-11 cells
Assay: Gene expression microarray analysis (Affymetrix PrimeView) and GSEA
Type: cell-based, human
Parameters: RFU PODN (11730768_x_at) / Fold change /veh PODN (11730768_x_at) / RFU LINC00158 (11744669_a_at) / Fold change /veh LINC00158 (11744669_a_at) / RFU DUSP10 (11751237_a_at) / Fold change /veh DUSP10 (11751237_a_at) / RFU ID3 (11757404_x_at) / Fold change /veh ID3 (11757404_x_at) / RFU PLEKHG5 (11737974_s_at) / Fold change /veh PLEKHG5 (11737974_s_at) / RFU LRRC4B (11730491_at) / Fold change /veh LRRC4B (11730491_at) / RFU GIMAP4 (11747438_a_at) / Fold change /veh GIMAP4 (11747438_a_at) / RFU KRT8 (11758183_x_at) / Fold change /veh KRT8 (11758183_x_at) / RFU CNN1 (11734310_a_at) / Fold change /veh CNN1 (11734310_a_at) / RFU VPS37D (11726825_at) / Fold change /veh VPS37D (11726825_at) / RFU C10orf10 (11716522_x_at) / Fold change /veh C10orf10 (11716522_x_at) / RFU KIR2DL2 /// KIR2DL4 /// KIR2DL5A /// KIR2DL5B /// KIR2DS1 /// KIR2DS2 /// KIR2DS3 /// KIR2DS4 /// KIR3DL3 /// KIR3DL3 /// KIR3DS1 (11738374_at) / Fold change /veh KIR2DL2 /// KIR2DL4 /// KIR2DL5A /// KIR2DL5B /// KIR2DS1 /// KIR2DS2 /// KIR2DS3 /// KIR2DS4 /// KIR3DL3 /// KIR3DL3 /// KIR3DS1 (11738374_at) / RFU C1QL1 (11718748_at) / Fold change /veh C1QL1 (11718748_at) / RFU TMPRSS4 (11747572_a_at) / Fold change /veh TMPRSS4 (11747572_a_at) / RFU HAMP (11756126_x_at) / Fold change /veh HAMP (11756126_x_at) / RFU RNFT2 (11725882_a_at) / Fold change /veh RNFT2 (11725882_a_at) / RFU NR4A2 (11747474_a_at) / Fold change /veh NR4A2 (11747474_a_at) / RFU ABCC12 (11746883_a_at) / Fold change /veh ABCC12 (11746883_a_at) / RFU TMEM136 (11760407_x_at) / Fold change /veh TMEM136 (11760407_x_at) / RFU CLDN22 /// WWC2 (11732394_at) / Fold change /veh CLDN22 /// WWC2 (11732394_at) / RFU HLA-DPB1 (11760878_x_at) / Fold change /veh HLA-DPB1 (11760878_x_at) / RFU SPINT1 (11716480_a_at) / Fold change /veh SPINT1 (11716480_a_at) / RFU GAP43 (11754022_s_at) / Fold change /veh GAP43 (11754022_s_at) / RFU A4GNT (11735810_at) / Fold change /veh A4GNT (11735810_at) / RFU PRB3 (11715151_x_at) / Fold change /veh PRB3 (11715151_x_at) / RFU TUBB4B (11761932_at) / Fold change /veh TUBB4B (11761932_at) / RFU CAPN14 (11732068_a_at) / Fold change /veh CAPN14 (11732068_a_at) / RFU TMCC2 (11721928_a_at) / Fold change /veh TMCC2 (11721928_a_at) / RFU IRGQ (11745062_a_at) / Fold change /veh IRGQ (11745062_a_at) / RFU FAM174B (11720279_a_at) / Fold change /veh FAM174B (11720279_a_at) / RFU TMPRSS4 (11748680_a_at) / Fold change /veh TMPRSS4 (11748680_a_at) / RFU FAM212B (11763350_a_at) / Fold change /veh FAM212B (11763350_a_at) / RFU PLEKHG5 (11743358_a_at) / Fold change /veh PLEKHG5 (11743358_a_at) / RFU ZSCAN30 (11745921_a_at) / Fold change /veh ZSCAN30 (11745921_a_at) / RFU CMKLR1 (11741424_a_at) / Fold change /veh CMKLR1 (11741424_a_at) / RFU LOC101060620 /// MAPK8IP1 (11723275_at) / Fold change /veh LOC101060620 /// MAPK8IP1 (11723275_at) / RFU SPTSSB (11747773_x_at) / Fold change /veh SPTSSB (11747773_x_at) / RFU PRSS12 (11739890_at) / Fold change /veh PRSS12 (11739890_at) / RFU BIN1 (11741810_x_at) / Fold change /veh BIN1 (11741810_x_at) / RFU WNT11 (11732464_a_at) / Fold change /veh WNT11 (11732464_a_at) / RFU C10orf10 (11716521_a_at) / Fold change /veh C10orf10 (11716521_a_at) / RFU C5orf56 (11738089_at) / Fold change /veh C5orf56 (11738089_at) / RFU CYB561 (11721691_x_at) / Fold change /veh CYB561 (11721691_x_at) / RFU ANKRD19P (11752326_a_at) / Fold change /veh ANKRD19P (11752326_a_at) / RFU OR2T12 /// OR2T33 /// OR2T8 (11738714_s_at) / Fold change /veh OR2T12 /// OR2T33 /// OR2T8 (11738714_s_at) / RFU VCAN (11748164_a_at) / Fold change /veh VCAN (11748164_a_at) / RFU JSRP1 (11732532_at) / Fold change /veh JSRP1 (11732532_at) / RFU KRTAP10-11 (11738290_x_at) / Fold change /veh KRTAP10-11 (11738290_x_at) / RFU MYO3A (11730013_a_at) / Fold change /veh MYO3A (11730013_a_at) / RFU EBF3 (11725865_a_at) / Fold change /veh EBF3 (11725865_a_at) / RFU CAMK2N1 (11719241_x_at) / Fold change /veh CAMK2N1 (11719241_x_at) / RFU C5orf56 (11738088_a_at) / Fold change /veh C5orf56 (11738088_a_at) / RFU OLFML3 (11715873_a_at) / Fold change /veh OLFML3 (11715873_a_at) / RFU LOC100653217 /// NTM (11731650_a_at) / Fold change /veh LOC100653217 /// NTM (11731650_a_at) / RFU MAPK11 (11762145_a_at) / Fold change /veh MAPK11 (11762145_a_at) / RFU FIZ1 (11724087_x_at) / Fold change /veh FIZ1 (11724087_x_at) / RFU OASL (11726364_x_at) / Fold change /veh OASL (11726364_x_at) / RFU SOX15 (11748057_x_at) / Fold change /veh SOX15 (11748057_x_at) / RFU CD79A (11719716_a_at) / Fold change /veh CD79A (11719716_a_at) / RFU HIST1H1D (11736915_at) / Fold change /veh HIST1H1D (11736915_at) / RFU CASKIN2 (11723855_a_at) / Fold change /veh CASKIN2 (11723855_a_at) / RFU LOC730098 (11760151_x_at) / Fold change /veh LOC730098 (11760151_x_at) / RFU OR4N2 (11742367_at) / Fold change /veh OR4N2 (11742367_at) / RFU PRRT2 (11749266_a_at) / Fold change /veh PRRT2 (11749266_a_at) / RFU SNX32 (11753110_a_at) / Fold change /veh SNX32 (11753110_a_at) / RFU CDHR5 (11726645_a_at) / Fold change /veh CDHR5 (11726645_a_at) / RFU RCAN1 (11760418_a_at) / Fold change /veh RCAN1 (11760418_a_at) / RFU FAM167A (11723789_a_at) / Fold change /veh FAM167A (11723789_a_at) / RFU FAM26E (11764081_at) / Fold change /veh FAM26E (11764081_at) / RFU ISYNA1 (11749810_s_at) / Fold change /veh ISYNA1 (11749810_s_at) / RFU ACY1 (11761880_at) / Fold change /veh ACY1 (11761880_at) / RFU 11764098_at / Fold change /veh 11764098_at / RFU SAMD14 (11745864_x_at) / Fold change /veh SAMD14 (11745864_x_at) / RFU NPB (11741838_a_at) / Fold change /veh NPB (11741838_a_at) / RFU TMPRSS6 (11731388_a_at) / Fold change /veh TMPRSS6 (11731388_a_at) / RFU KRTAP10-2 (11738614_at) / Fold change /veh KRTAP10-2 (11738614_at) / RFU ARHGAP8 /// PRR5-ARHGAP8 (11727945_x_at) / Fold change /veh ARHGAP8 /// PRR5-ARHGAP8 (11727945_x_at) / RFU KRTAP5-7 /// NADSYN1 (11734609_at) / Fold change /veh KRTAP5-7 /// NADSYN1 (11734609_at) / RFU RASL12 (11751679_a_at) / Fold change /veh RASL12 (11751679_a_at) / RFU CDKN2B (11736163_a_at) / Fold change /veh CDKN2B (11736163_a_at) / RFU PRF1 (11729649_at) / Fold change /veh PRF1 (11729649_at) / RFU, ZNF638 /// ZNF638-IT1 / Fold change vs veh, ZNF638 /// ZNF638-IT1 / RFU, PANK3 / Fold change vs veh, PANK3 / RFU, SH3YL1 / Fold change vs veh, SH3YL1 / RFU, ZEB2 / Fold change vs veh, ZEB2 / RFU, NRIP1 / Fold change vs veh, NRIP1 / RFU, PTTG1IP / Fold change vs veh, PTTG1IP / RFU, CAPN2 / Fold change vs veh, CAPN2 / RFU, MED14 / Fold change vs veh, MED14 / RFU, SNORA58 / Fold change vs veh, SNORA58 / RFU, C1orf63 / Fold change vs veh, C1orf63 / RFU, LRRFIP1 / Fold change vs veh, LRRFIP1 / RFU, NDUFAF7 / Fold change vs veh, NDUFAF7 / RFU, SLC12A2 / Fold change vs veh, SLC12A2 / RFU, IBTK / Fold change vs veh, IBTK / RFU, ESF1 / Fold change vs veh, ESF1 / Fold change vs veh, TMEM50B / RFU, TAOK1 / Fold change vs veh, TAOK1 / RFU, ACBD3 / Fold change vs veh, ACBD3 / RFU, TMA16 / Fold change vs veh, TMA16 / RFU, RWDD3 / Fold change vs veh, RWDD3 / RFU, BCAT1 / Fold change vs veh, BCAT1 / RFU, EDEM3 / Fold change vs veh, EDEM3 / RFU, TMEM33 / Fold change vs veh, TMEM33 / RFU, WDR75 / Fold change vs veh, WDR75 / RFU, AHCTF1 / Fold change vs veh, AHCTF1 / RFU, TFRC / Fold change vs veh, TFRC / RFU, ZDHHC17 / Fold change vs veh, ZDHHC17 / RFU, NOM1 / Fold change vs veh, NOM1 / RFU, ARL8B / Fold change vs veh, ARL8B / RFU, ZBTB11 / Fold change vs veh, ZBTB11 / RFU, TAMM41 / Fold change vs veh, TAMM41 / RFU, KIAA1704 /// LOC100996395 / Fold change vs veh, KIAA1704 /// LOC100996395 / RFU, ING1 / Fold change vs veh, ING1 / RFU, TRMT61B / Fold change vs veh, TRMT61B / RFU, FUBP3 / Fold change vs veh, FUBP3 / RFU, TP53 / Fold change vs veh, TP53 / RFU, TNKS2 / Fold change vs veh, TNKS2 / RFU, ZFP14 / Fold change vs veh, ZFP14 / RFU, ACTR2 / Fold change vs veh, ACTR2 / RFU, PPP3R1 / Fold change vs veh, PPP3R1 / RFU, PIK3R1 / Fold change vs veh, PIK3R1 / RFU, HNRNPA1 / Fold change vs veh, HNRNPA1 / RFU, RNF170 / Fold change vs veh, RNF170 / RFU, ZNF28 / Fold change vs veh, ZNF28 / RFU, RNGTT / Fold change vs veh, RNGTT / RFU, OGT / Fold change vs veh, OGT / RFU, BRD1 / Fold change vs veh, BRD1 / RFU, MARS / Fold change vs veh, MARS / RFU, ZNF655 / Fold change vs veh, ZNF655 / RFU, FAHD1 / Fold change vs veh, FAHD1 / RFU, BDP1 / Fold change vs veh, BDP1 / RFU, LRRCC1 / Fold change vs veh, LRRCC1 / RFU, ARID1A / Fold change vs veh, ARID1A / RFU, ZNF146 / Fold change vs veh, ZNF146 / RFU, ZNF330 / Fold change vs veh, ZNF330 / RFU, GPN3 / Fold change vs veh, GPN3 / RFU, C9orf123 / Fold change vs veh, C9orf123 / RFU, N4BP2L2 / Fold change vs veh, N4BP2L2 / RFU, ARFIP1 / Fold change vs veh, ARFIP1 / RFU, FAM179B / Fold change vs veh, FAM179B / RFU, BCL10 / Fold change vs veh, BCL10 / RFU, UHRF1BP1L / Fold change vs veh, UHRF1BP1L / RFU, BET1 / Fold change vs veh, BET1 / RFU, CNOT2 / Fold change vs veh, CNOT2 / RFU, ZNF268 / Fold change vs veh, ZNF268 / Fold change vs veh, ZNF507 / RFU, DGCR2 / Fold change vs veh, DGCR2 / RFU, WDSUB1 / Fold change vs veh, WDSUB1 / Fold change vs veh, HSP90B1 /// MIR3652 / RFU, ADSS / Fold change vs veh, ADSS / RFU, GK / Fold change vs veh, GK / RFU, ZNF148 / Fold change vs veh, ZNF148 / RFU, TAF9 / Fold change vs veh, TAF9 / RFU, SLC1A5 / Fold change vs veh, SLC1A5 / RFU, SLMO2 / Fold change vs veh, SLMO2 / RFU, ABCC4 / Fold change vs veh, ABCC4 / RFU, LOC101060439 /// RAP1B / Fold change vs veh, LOC101060439 /// RAP1B / RFU, RFX7 / Fold change vs veh, RFX7 / RFU, GTPBP10 / Fold change vs veh, GTPBP10 / RFU, CNEP1R1 / Fold change vs veh, CNEP1R1 / RFU, BIVM-ERCC5 /// ERCC5 / Fold change vs veh, BIVM-ERCC5 /// ERCC5 / RFU, ILF3 / Fold change vs veh, ILF3 / RFU 11762660_at / Fold change /veh 11762660_at / RFU VCAN (11757783_s_at) / Fold change /veh VCAN (11757783_s_at) / RFU DDX43 (11728927_at) / Fold change /veh DDX43 (11728927_at) / RFU KRT8 (11758188_x_at) / Fold change /veh KRT8 (11758188_x_at) / RFU NKD1 (11759106_at) / Fold change /veh NKD1 (11759106_at) / RFU SRD5A1 (11742802_a_at) / Fold change /veh SRD5A1 (11742802_a_at) / RFU TPSAB1 /// TPSB2 (11721975_s_at) / Fold change /veh TPSAB1 /// TPSB2 (11721975_s_at) / RFU GSTM3 (11746129_a_at) / Fold change /veh GSTM3 (11746129_a_at) / RFU IL23R (11737362_x_at) / Fold change /veh IL23R (11737362_x_at) / RFU TMEM51 (11727254_a_at) / Fold change /veh TMEM51 (11727254_a_at) / RFU PIWIL2 (11732686_x_at) / Fold change /veh PIWIL2 (11732686_x_at) / RFU ORM1 (11744905_x_at) / Fold change /veh ORM1 (11744905_x_at) / RFU CCDC152 (11743942_at) / Fold change /veh CCDC152 (11743942_at) / RFU ECM1 (11717891_a_at) / Fold change /veh ECM1 (11717891_a_at) / RFU IL23R (11748794_a_at) / Fold change /veh IL23R (11748794_a_at) / RFU TNFAIP8L3 (11732012_x_at) / Fold change /veh TNFAIP8L3 (11732012_x_at) / RFU MBOAT4 (11741988_at) / Fold change /veh MBOAT4 (11741988_at) / RFU 11764193_at / Fold change /veh 11764193_at / RFU TMEM53 (11763286_at) / Fold change /veh TMEM53 (11763286_at) / RFU MAGEB2 (11727129_at) / Fold change /veh MAGEB2 (11727129_at) / RFU TMEM200A (11744735_a_at) / Fold change /veh TMEM200A (11744735_a_at) / RFU CCDC152 (11751479_a_at) / Fold change /veh CCDC152 (11751479_a_at) / RFU FAM211A (11726209_a_at) / Fold change /veh FAM211A (11726209_a_at) / RFU RGS16 (11746705_a_at) / Fold change /veh RGS16 (11746705_a_at) / RFU VCAN (11755009_s_at) / Fold change /veh VCAN (11755009_s_at) / RFU RHOB (11743442_s_at) / Fold change /veh RHOB (11743442_s_at) / RFU RGS16 (11720943_a_at) / Fold change /veh RGS16 (11720943_a_at) / RFU RGS16 (11720944_at) / Fold change /veh RGS16 (11720944_at) / RFU, VPS4B / Fold change vs veh, VPS4B / RFU, CREB1 / Fold change vs veh, CREB1 / RFU, DNAJC13 / Fold change vs veh, DNAJC13 / RFU, GNAQ / Fold change vs veh, GNAQ / RFU, CDK5R1 / Fold change vs veh, CDK5R1 / RFU, ZRANB3 / Fold change vs veh, ZRANB3 / RFU, CUL4A / Fold change vs veh, CUL4A / RFU, CCNY / Fold change vs veh, CCNY / RFU, UFL1 / Fold change vs veh, UFL1 / RFU, COG3 / Fold change vs veh, COG3 / RFU, DIAPH2 / Fold change vs veh, DIAPH2 / RFU, SKA2 / Fold change vs veh, SKA2 / RFU, AFF3 / Fold change vs veh, AFF3 / RFU, LMF1 / Fold change vs veh, LMF1 / RFU, IPO11 / Fold change vs veh, IPO11 / RFU, DFFB / Fold change vs veh, DFFB / RFU, FOXP1 / Fold change vs veh, FOXP1 / RFU, CARD8 / Fold change vs veh, CARD8 / RFU, STRN3 / Fold change vs veh, STRN3 / RFU, ADK / Fold change vs veh, ADK / RFU, RASSF2 / Fold change vs veh, RASSF2 / RFU, WIPF1 / Fold change vs veh, WIPF1 / RFU, LARP1B / Fold change vs veh, LARP1B / RFU, RASA1 / Fold change vs veh, RASA1 / RFU, RB1 / Fold change vs veh, RB1 / RFU, PPFIA1 / Fold change vs veh, PPFIA1 / RFU, MAT2A / Fold change vs veh, MAT2A / RFU, CCT5 / Fold change vs veh, CCT5 / RFU, WDR92 / Fold change vs veh, WDR92 / RFU, CUX1 / Fold change vs veh, CUX1 / RFU, TTC7A / Fold change vs veh, TTC7A / RFU, TMEM135 / Fold change vs veh, TMEM135 / RFU, DEPTOR / Fold change vs veh, DEPTOR / RFU, CPM / Fold change vs veh, CPM / RFU, DNAJB6 / Fold change vs veh, DNAJB6 / RFU, CACNA2D3 / Fold change vs veh, CACNA2D3 / RFU, DTX4 / Fold change vs veh, DTX4 / RFU, TFCP2 / Fold change vs veh, TFCP2 / RFU, GMCL1 /// GMCL1P1 / Fold change vs veh, GMCL1 /// GMCL1P1 / RFU, AEBP2 / Fold change vs veh, AEBP2 / RFU, SNHG1 /// SNORD22 /// SNORD25 /// SNORD26 /// SNORD27 /// SNORD28 /// SNORD29 /// SNORD31 / Fold change vs veh, SNHG1 /// SNORD22 /// SNORD25 /// SNORD26 /// SNORD27 /// SNORD28 /// SNORD29 /// SNORD31 / Fold change (Aza/veh), C12orf56 (ProbeSet 11735607_a_at) / Fold change (ACY-1035/veh), C12orf56 (ProbeSet 11735607_a_at) / Fold change (Aza/veh), FGFR1OP (ProbeSet 11751329_s_at) / Fold change (ACY-1035/veh), FGFR1OP (ProbeSet 11751329_s_at) / Fold change (Aza/veh), VPS36 (ProbeSet 11739960_a_at) / Fold change (ACY-1035/veh), VPS36 (ProbeSet 11739960_a_at) / RFU SYPL1 (11715823_x_at) / Fold change /veh SYPL1 (11715823_x_at) / RFU IGFBP7 (11715501_s_at) / Fold change /veh IGFBP7 (11715501_s_at) / RFU REEP3 (11722064_at) / Fold change /veh REEP3 (11722064_at) / RFU IGLL1 (11728026_x_at) / Fold change /veh IGLL1 (11728026_x_at): dose or concentration left out as unconfirmed
Conditions: MV-4-11 cells, 48 hours

SMILES: Nc1ccc(-c2cccs2)cc1NC(=O)c1ccc2c(c1)cc(C1CC1)n2CCN1CCOCC1 [ACY-1035]
- RFU NR4A2 (11747474_a_at): 22.98 RFU
